Source: patent publication US12559474B2, “Triazine derivatives having virus replication inhibitory activity and pharmaceutical composition comprising the same” (priority 2021, dated 2026)
Read-outs that look alike come from different tables or passages of the source.

What was measured:
SARS-CoV-2 = test: microbe, parasite or virus in culture; assay type: cell-based; settings: Severe acute respiratory syndrome coronavirus 2, VeroE6/TMPRSS2, 72 h, 50% SARS-CoV-2 infected cell death inhibitory concentration, VeroE6/TMPRSS2 cells, 3 days culture
SARS-CoV-2 3CL protease = SARS-CoV-2 3CL protease (Severe acute respiratory syndrome coronavirus 2, UniProt P0DTD1); test: biochemical; settings: 50% SARS-CoV-2 3CL protease inhibitory concentration, read-out: IC50

Row | Structure (SMILES) | EC50 (SARS-CoV-2; class symbols) [nM] | IC50 (SARS-CoV-2 3CL protease; given as class symbols) [nM] | EC50 (SARS-CoV-2; CellTiter-Glo 2.0) [nM] | IC50 (SARS-CoV-2 3CL protease; RapidFire MS) [nM]
1 | CNc1nc2ccc(Nc3nc(=O)n(Cc4cc(Cl)c[nH]c4=O)c(=O)n3Cc3cc(F)c(F)c(F)c3)cc2s1 [II-0041] | 1000 to 10000 | < 100 |  | 
2 | Cc1cncc(-n2c(=O)nc(Nc3cc4cn(C)nc4cc3Cl)n(Cc3cc(Cl)c(F)cc3C)c2=O)c1 [II-0043] |  |  | 232 | 5.8
3 | Cc1cc(F)c(Cl)cc1Cn1c(Nc2cc3cn(C)nc3cc2Cl)nc(=O)n(Cc2ncn(C)n2)c1=O [II-0044] | < 1000 | < 100 |  | 
4 | Cn1cnc(Cn2c(=O)nc(Nc3cc4cn(C)nc4cc3Cl)n(Cc3cc(F)c(F)c(Cl)c3)c2=O)n1 [II-0045] |  |  | 218 | 4.7
5 | Cn1cnc(Cn2c(=O)nc(Nc3cc4c(cc3Cl)OCC4)n(Cc3cc(F)c(F)c(Cl)c3)c2=O)n1 [II-0046] | < 1000 | < 100 |  | 
6 | O=C1CN=CC=C1Cn1c(=O)nc(Nc2cc3c(cc2Cl)OCCC3)n(Cc2cc(F)c(F)cc2F)c1=O [II-0047] | < 1000 | < 100 |  | 
7 | CNc1nc2cc(Cl)c(Nc3nc(=O)n(Cc4ncn(C)n4)c(=O)n3Cc3cc(F)c(F)cc3F)cc2s1 [II-0048] | < 1000 | < 100 |  | 
8 | O=c1nc(Nc2cc3c(cc2Cl)OCC3)n(Cc2cc(F)c(F)c(F)c2)c(=O)n1-c1cncc2ccccc12 [II-0049] | < 1000 | < 100 |  | 
9 | Cn1cnc(Cn2c(=O)nc(Nc3cc4cn(C)nc4cc3Cl)n(Cc3ccc(F)c(Cl)c3)c2=O)n1 [II-0050] | < 1000 | < 100 |  | 
10 | Cn1cnc(Cn2c(=O)nc(Nc3cc4cn(C)nc4cc3Cl)n(Cc3cc(F)cc(Cl)c3)c2=O)n1 [II-0051] | 1000 to 10000 | < 100 |  | 
11 | Cc1ccc(Cl)cc1Cn1c(Nc2cc3cn(C)nc3cc2Cl)nc(=O)n(Cc2ncn(C)n2)c1=O [II-0052] | 1000 to 10000 | < 100 |  | 
12 | Cc1cncc(-n2c(=O)nc(Nc3cc4cn(C)nc4cc3F)n(Cc3cc(C#N)c(F)cc3Cl)c2=O)c1 [II-0053] | < 1000 | < 100 |  | 
13 | Cc1cncc(-n2c(=O)nc(Nc3cc4cn(C)nc4cc3F)n(Cc3cc(F)c(F)c(C#N)c3)c2=O)c1 [II-0054] | < 1000 | < 100 |  | 
14 | Cc1cncc(-n2c(=O)nc(Nc3ccc4nn(CC(F)F)cc4c3)n(Cc3cc(F)c(F)c(C#N)c3)c2=O)c1 [II-0055] |  |  | 180 | 4.5
15 | Cn1cnc(Cn2c(=O)nc(Nc3cc4oc(N)nc4cc3Cl)n(Cc3cc(Cl)c(F)cc3F)c2=O)n1 [II-0056] | 1000 to 10000 | < 100 |  | 
16 | Cn1cnc(Cn2c(=O)nc(Nc3cc4oc(N)nc4cc3Cl)n(Cc3cc(F)c(F)cc3F)c2=O)n1 [II-0057] | 1000 to 10000 | < 100 |  | 
17 | Cc1cncc(-n2c(=O)nc(Nc3cc4cn(CC(F)F)nc4cc3F)n(Cc3cc(F)c(F)c(Cl)c3)c2=O)c1 [II-0058] | < 1000 | < 100 |  | 
18 | CNc1nc2cc(Cl)c(Nc3nc(=O)n(Cc4ncn(C)n4)c(=O)n3Cc3cc(F)c(F)c(Cl)c3)cc2o1 [II-0059] | 1000 to 10000 | < 100 |  | 
19 | Cn1cnc(Cn2c(=O)nc(Nc3cc4cn(C)nc4cc3F)n(Cc3cc(F)c(F)c(Cl)c3)c2=O)n1 [II-0060] | 1000 to 10000 | < 100 |  | 
20 | CNc1nc2cc(Cl)c(Nc3nc(=O)n(Cc4ncn(C)n4)c(=O)n3Cc3cc(F)c(F)c(F)c3)cc2o1 [II-0061] | 1000 to 10000 | < 100 |  | 

Row | Structure (SMILES) | EC50 (SARS-CoV-2; class symbols) [nM] | IC50 (SARS-CoV-2 3CL protease; given as class symbols) [nM] | EC50 (SARS-CoV-2; CellTiter-Glo 2.0) [nM] | IC50 (SARS-CoV-2 3CL protease; RapidFire MS) [nM]
21 | Cn1cnc(Cn2c(=O)nc(Nc3cc4cn(C)nc4cc3F)n(Cc3cc(F)c(F)c(F)c3)c2=O)n1 [II-0064] | 1000 to 10000 | < 100 |  | 
22 | C#Cc1cc(F)c(F)cc1Cn1c(Nc2cc3cn(C)nc3cc2Cl)nc(=O)n(-c2cncc(C)c2)c1=O [II-0065] | < 1000 | < 100 |  | 
23 | C/C=C/c1cc(F)c(F)cc1Cn1c(Nc2cc3cn(C)nc3cc2Cl)nc(=O)n(-c2cncc(C)c2)c1=O [II-0066] | 1000 to 10000 | < 100 |  | 
24 | C=Cc1cc(F)c(F)cc1Cn1c(Nc2cc3cn(C)nc3cc2Cl)nc(=O)n(-c2cncc(C)c2)c1=O [II-0067] | < 1000 | < 100 |  | 
25 | CCc1cc(F)c(F)cc1Cn1c(Nc2cc3cn(C)nc3cc2Cl)nc(=O)n(-c2cncc(C)c2)c1=O [II-0068] | < 1000 | < 100 |  | 
26 | CCCc1cc(F)c(F)cc1Cn1c(Nc2cc3cn(C)nc3cc2Cl)nc(=O)n(-c2cncc(C)c2)c1=O [II-0069] | 1000 to 10000 | < 100 |  | 
27 | Cc1cncc(-n2c(=O)nc(Nc3cc4cn(C)nc4cc3Cl)n(Cc3cc(F)c(F)cc3C#N)c2=O)c1 [II-0070] | 1000 to 10000 | < 100 |  | 
28 | Cc1cncc(-n2c(=O)nc(Nc3cc4cn(C)nc4cc3Cl)n(Cc3cc(C#N)c(F)cc3OCC(C)C)c2=O)c1 [II-0071] | < 1000 | < 100 |  | 
29 | Cc1cncc(-n2c(=O)nc(Nc3cc4cn(C)nc4cc3Cl)n(Cc3cc(F)c(F)cc3CCC(C)(C)O)c2=O)c1 [II-0073] | 1000 to 10000 | < 100 |  | 
30 | COC(=O)Nc1nc2cc(Cl)c(Nc3nc(=O)n(-c4cncc(C)c4)c(=O)n3Cc3ccc(F)c(C#N)c3)cc2s1 [II-0074] |  |  | 248 | 3.6
31 | COC(=O)Nc1nc2cc(Cl)c(Nc3nc(=O)n(Cc4ncn(C)n4)c(=O)n3Cc3cc(F)c(F)cc3F)cc2s1 [II-0075] | < 1000 | < 100 |  | 
32 | Cc1cncc(-n2c(=O)nc(Nc3cc4cn(C)nc4cc3Cl)n(Cc3cc(C#N)ccc3C(F)(F)F)c2=O)c1 [II-0076] | < 1000 | < 100 |  | 
33 | Cc1cncc(-n2c(=O)nc(Nc3cc4cn(C)nc4cc3Cl)n(Cc3cc(Cl)ccc3C(F)(F)F)c2=O)c1 [II-0077] | < 1000 | < 100 |  | 
34 | O=c1nc(Nc2cc3cn(CCN4CCOCC4)nc3cc2Cl)n(Cc2cc(F)c(F)cc2F)c(=O)n1-c1cncc2ccccc12 [II-0078] | < 1000 | < 100 |  | 
35 | COC(=O)Nc1nc2cc(Cl)c(Nc3nc(=O)n(-c4cncc(C)c4)c(=O)n3Cc3cc(Cl)c(F)cn3)cc2s1 [II-0079] | < 1000 | < 100 |  | 
36 | COC(=O)Nc1nc2cc(Cl)c(Nc3nc(=O)n(Cc4ncn(C)n4)c(=O)n3Cc3cc(Cl)c(F)cn3)cc2s1 [II-0080] | 1000 to 10000 | < 100 |  | 
37 | Cn1cnc(Cn2c(=O)nc(Nc3cc4sc(NCC5CC5)nc4cc3Cl)n(Cc3cc(F)c(F)cc3F)c2=O)n1 [II-0082] | 1000 to 10000 | < 100 |  | 
38 | COc1ccc(Nc2nc(=O)n(Cc3cc(C)n[nH]c3=O)c(=O)n2Cc2cc(F)c(F)c(F)c2)c(Cl)c1 [II-0084] | < 1000 | < 100 |  | 
39 | Cc1cncc(-n2c(=O)nc(Nc3cc4cn(C)nc4cc3Cl)n(Cc3cc(C#N)c(F)cc3Cl)c2=O)c1 [II-0087] |  |  | 69 | 2.5
40 | Cn1cnc(Cn2c(=O)nc(Nc3cc4cn(C)nc4cc3Cl)n(Cc3cc(C#N)c(F)cc3Cl)c2=O)n1 [II-0088] | 1000 to 10000 | < 100 |  | 

Row | Structure (SMILES) | EC50 (SARS-CoV-2; class symbols) [nM] | IC50 (SARS-CoV-2 3CL protease; given as class symbols) [nM] | EC50 (SARS-CoV-2; CellTiter-Glo 2.0) [nM] | IC50 (SARS-CoV-2 3CL protease; RapidFire MS) [nM]
41 | Cc1cncc(-n2c(=O)nc(Nc3cc4cn(CC(F)F)nc4cc3Cl)n(Cc3ccc(F)c(C#N)c3)c2=O)c1 [II-0089] |  |  | 182 | 3.6
42 | Cc1cncc(-n2c(=O)nc(Nc3cc4cn(CC(F)F)nc4cc3Cl)n(Cc3cc(F)c(F)c(F)c3)c2=O)c1 [II-0090] |  |  | 355 | 16
43 | Cc1cncc(-n2c(=O)nc(Nc3cc4cn(C)nc4cc3Cl)n(Cc3cc(C#N)c(F)cc3CCC(C)C)c2=O)c1 [II-0092] | < 1000 | < 100 |  | 
44 | COc1cc(F)c(C#N)cc1Cn1c(Nc2cc3cn(C)nc3cc2Cl)nc(=O)n(-c2cncc(C)c2)c1=O [II-0093] |  |  | 487 | 12
45 | Cc1cncc(-n2c(=O)nc(Nc3cc4cn(C)nc4cc3Cl)n(Cc3cc(F)c(F)cc3Cc3ccccc3)c2=O)c1 [II-0094] | 1000 to 10000 | < 100 |  | 
46 | Cc1ccc(Cl)cc1Cn1c(Nc2cc3c(cc2Cl)nc2n3CCN2)nc(=O)n(-c2cncc(Cl)c2)c1=O [II-0095] | < 1000 | < 100 |  | 
47 | Cc1cncc(-n2c(=O)nc(Nc3cc4cn(C5CCOCC5)nc4cc3Cl)n(Cc3ccc(F)c(C#N)c3)c2=O)c1 [II-0096] | < 1000 | < 100 |  | 
48 | Cc1ccc(C#N)cc1Cn1c(Nc2cc3cn(C)nc3cc2F)nc(=O)n(-c2cncc(Cl)c2)c1=O [II-0097] | < 1000 | < 100 |  | 
49 | Cn1cnc(Cn2c(=O)nc(Nc3cc4cn(C5CCOCC5)nc4cc3Cl)n(Cc3cc(Cl)c(F)cc3F)c2=O)n1 [II-0098] | 1000 to 10000 | < 100 |  | 
50 | CC1(Cn2cc3cc(Nc4nc(=O)n(Cc5ccc[nH]c5=O)c(=O)n4Cc4cc(F)c(F)c(F)c4)c(Cl)cc3n2)COC1 [II-0099] | 1000 to 10000 | < 100 |  | 
51 | Cc1cncc(-n2c(=O)nc(Nc3cc4cn(C[C@H](C)O)nc4cc3Cl)n(Cc3cc(F)c(F)cc3F)c2=O)c1 [II-0100] | < 1000 | < 100 |  | 
52 | Cc1cncc(-n2c(=O)nc(Nc3cc4cn(C[C@H](C)O)nc4cc3Cl)n(Cc3cc(F)c(F)c(F)c3)c2=O)c1 [II-0101] | < 1000 | < 100 |  | 
53 | Cn1cnc(Cn2c(=O)nc(Nc3cc4cn(C5CCOCC5)nc4cc3Cl)n(Cc3cc(F)c(F)cc3F)c2=O)n1 [II-0102] | 1000 to 10000 | < 100 |  | 
54 | CNc1nc2cc(Cl)c(Nc3nc(=O)n(Cc4ncn(C)n4)c(=O)n3Cc3cc(Cl)c(F)cc3F)cc2o1 [II-0104] | 1000 to 10000 | < 100 |  | 
55 | Cc1cncc(-n2c(=O)nc(Nc3ccc4nc(C)oc4c3)n(Cc3ccc(F)c(C#N)c3)c2=O)c1 [II-0105] | < 1000 | < 100 |  | 
56 | Cc1cncc(-n2c(=O)nc(Nc3cc4c(cc3Cl)nc(C(F)F)n4C)n(Cc3ccc(F)c(C#N)c3)c2=O)c1 [II-0106] | 1000 to 10000 | < 100 |  | 
57 | Cc1cncc(-n2c(=O)nc(Nc3cc4oc(C)nc4cc3F)n(Cc3ccc(F)c(C#N)c3)c2=O)c1 [II-0107] | 1000 to 10000 | < 100 |  | 
58 | Cc1cncc(-n2c(=O)nc(Nc3cc4oc(C)nc4cc3Cl)n(Cc3ccc(F)c(C#N)c3)c2=O)c1 [II-0108] | 1000 to 10000 | < 100 |  | 
